Publication PMC10527014 (Antiviral research, 2023)
Like-named read-outs stand apart in the source and are kept apart here.

Legend:
[1] = Mouse plasma protein binding; assay type: in vitro ADME
CYP2C19 = CYP2C19 (Homo sapiens, UniProt P33261); experiment: CYP inhibition, CYP2C19; assay type: in vitro ADME; details: read-out: CYP inhibition
[2] = system: Human Echovirus-11 Gregory; details: read-out: 50% Effective concentration EC50, RD, lowest concentration tested 0.032 μM
[3] = system: EV-D68 MP30 PP (mouse-adapted US/MO/14-18949); experiment: EV-D68 respiratory infection model in four-week-old AG129 mice; assay type: in vivo
[4] = system: EVD68, strain IL/14-18952 (IL52); experiment: Preliminary EVD68 inhibition at single concentration, VP1 qPCR in RD cells; assay type: cell-based, EV-D68; details: 5 μM, preliminary work, Fig. S2
CYP2C9 = CYP2C9 (Homo sapiens, UniProt P11712); experiment: CYP inhibition, CYP2C9; assay type: in vitro ADME; details: read-out: CYP inhibition
Chain of CYP2C9 (P11712 whole entry): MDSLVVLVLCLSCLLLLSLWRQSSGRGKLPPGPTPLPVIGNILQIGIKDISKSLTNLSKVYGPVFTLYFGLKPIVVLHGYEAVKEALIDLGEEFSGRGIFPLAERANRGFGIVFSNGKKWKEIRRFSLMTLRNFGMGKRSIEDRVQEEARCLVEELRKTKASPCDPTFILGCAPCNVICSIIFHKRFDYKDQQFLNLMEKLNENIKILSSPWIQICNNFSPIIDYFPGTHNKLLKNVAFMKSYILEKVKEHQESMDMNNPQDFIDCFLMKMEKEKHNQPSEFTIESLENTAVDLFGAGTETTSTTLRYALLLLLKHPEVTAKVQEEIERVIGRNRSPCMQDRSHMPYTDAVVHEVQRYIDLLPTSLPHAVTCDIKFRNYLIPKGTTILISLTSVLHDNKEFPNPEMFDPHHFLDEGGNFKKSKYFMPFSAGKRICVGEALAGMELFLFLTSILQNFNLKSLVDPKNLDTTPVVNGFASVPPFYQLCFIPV

EV-D68 = experiment: In vitro inhibition of EV-D68; assay type: cell-based; details: read-out: EC50 against EV-D68; discussion
MDCK = experiment: Cytotoxicity; assay type: cell-based; details: read-out: 50% Cytotoxic concentration CC50, line of Influenza H1N1
Human plasma stability = assay type: in vitro ADME; details: @ 5 hr, 37°C
[5] = system: Influenza H1N1 California/07/2009; experiment: Virus yield reduction assay, Influenza H1N1 California/07/2009; assay type: cell-based; details: read-out: 90% Effective concentration EC90, Influenza H1N1 California/07/2009, MDCK
hERG = hERG (Homo sapiens, UniProt Q12809); experiment: hERG inhibition; details: read-out: hERG inhibition IC50
Chain of hERG (Q12809 whole entry): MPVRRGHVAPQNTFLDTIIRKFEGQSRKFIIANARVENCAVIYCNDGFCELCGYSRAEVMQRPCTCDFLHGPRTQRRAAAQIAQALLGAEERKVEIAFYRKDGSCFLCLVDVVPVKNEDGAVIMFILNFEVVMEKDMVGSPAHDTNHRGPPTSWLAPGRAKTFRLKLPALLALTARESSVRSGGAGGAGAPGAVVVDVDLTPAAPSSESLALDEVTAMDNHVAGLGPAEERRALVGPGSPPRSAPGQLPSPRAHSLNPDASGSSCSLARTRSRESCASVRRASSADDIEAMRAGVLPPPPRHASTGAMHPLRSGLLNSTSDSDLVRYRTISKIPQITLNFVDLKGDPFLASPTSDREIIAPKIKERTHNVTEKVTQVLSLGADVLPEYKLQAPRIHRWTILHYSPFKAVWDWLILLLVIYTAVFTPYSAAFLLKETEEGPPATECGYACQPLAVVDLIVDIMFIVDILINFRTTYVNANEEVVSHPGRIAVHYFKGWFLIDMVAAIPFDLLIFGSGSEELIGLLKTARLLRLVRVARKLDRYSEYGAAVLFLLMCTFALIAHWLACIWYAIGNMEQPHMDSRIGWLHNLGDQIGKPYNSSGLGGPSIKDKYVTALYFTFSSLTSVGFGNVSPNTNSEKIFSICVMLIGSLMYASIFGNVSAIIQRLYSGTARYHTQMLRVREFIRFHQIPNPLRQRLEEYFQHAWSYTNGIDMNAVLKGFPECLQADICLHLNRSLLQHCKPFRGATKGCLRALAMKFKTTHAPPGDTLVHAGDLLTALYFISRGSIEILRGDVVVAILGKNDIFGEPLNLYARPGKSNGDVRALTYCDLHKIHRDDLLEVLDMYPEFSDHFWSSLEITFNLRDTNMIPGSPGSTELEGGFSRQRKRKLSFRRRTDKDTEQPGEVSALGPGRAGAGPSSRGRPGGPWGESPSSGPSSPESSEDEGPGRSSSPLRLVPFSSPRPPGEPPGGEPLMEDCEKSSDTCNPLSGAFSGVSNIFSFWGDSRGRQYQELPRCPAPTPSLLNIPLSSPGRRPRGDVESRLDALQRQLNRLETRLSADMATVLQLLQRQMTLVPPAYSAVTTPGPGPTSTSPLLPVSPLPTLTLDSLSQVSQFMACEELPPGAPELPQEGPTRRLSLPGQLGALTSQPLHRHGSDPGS

RD = experiment: Cytotoxicity; assay type: cell-based, human
EV-71 Tainan/4643/98 = details: read-out: 50% Effective concentration EC50; EV-71 Tainan/4643/98, Vero 76, CPE
CYP2D6 = CYP2D6 (Homo sapiens, UniProt P10635); experiment: CYP inhibition, CYP2D6; assay type: in vitro ADME; details: read-out: CYP inhibition
Chain of CYP2D6 (P10635 whole entry): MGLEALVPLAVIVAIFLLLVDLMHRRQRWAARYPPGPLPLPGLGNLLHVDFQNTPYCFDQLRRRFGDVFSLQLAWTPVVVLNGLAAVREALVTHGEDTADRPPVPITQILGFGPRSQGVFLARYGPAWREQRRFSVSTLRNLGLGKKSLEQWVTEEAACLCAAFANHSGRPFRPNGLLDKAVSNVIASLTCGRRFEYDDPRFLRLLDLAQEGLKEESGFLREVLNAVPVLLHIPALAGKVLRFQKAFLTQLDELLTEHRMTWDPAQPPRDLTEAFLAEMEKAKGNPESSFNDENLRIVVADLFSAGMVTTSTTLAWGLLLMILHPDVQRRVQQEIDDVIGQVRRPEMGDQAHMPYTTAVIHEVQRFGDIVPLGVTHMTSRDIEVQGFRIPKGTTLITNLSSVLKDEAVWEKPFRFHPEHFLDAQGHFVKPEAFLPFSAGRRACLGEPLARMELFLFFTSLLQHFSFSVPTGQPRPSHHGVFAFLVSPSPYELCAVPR

mouse-adapted CVB5 = experiment: Mouse model of CVB5-induced pancreatitis; assay type: in vivo, BALB/c mice
[6] = system: Human Echovirus-30 Bastianni; details: read-out: 50% Effective concentration EC50, RD, lowest concentration tested 0.032 μM
[7] = system: Human Echovirus-30 Bastianni; experiment: Virus yield reduction assay, Human Echovirus-30 Bastianni; assay type: cell-based; details: read-out: 90% Effective concentration EC90, RD, lowest concentration tested 0.032 μM
EV-D68 US/KY/14-18953 = experiment: Virus yield reduction assay, EV-D68 US/KY/14-18953; assay type: cell-based; details: read-out: 90% Effective concentration EC90, EV-D68 US/KY/14-18953, RD
Coxsackie B3 HA 201933 = experiment: Virus yield reduction assay, Coxsackie B3 HA 201933; assay type: cell-based; details: read-out: 90% Effective concentration EC90; Coxsackie B3 HA 201933, Vero 76, virus yield reduction

Chain of CYP2C19 (P33261 whole entry): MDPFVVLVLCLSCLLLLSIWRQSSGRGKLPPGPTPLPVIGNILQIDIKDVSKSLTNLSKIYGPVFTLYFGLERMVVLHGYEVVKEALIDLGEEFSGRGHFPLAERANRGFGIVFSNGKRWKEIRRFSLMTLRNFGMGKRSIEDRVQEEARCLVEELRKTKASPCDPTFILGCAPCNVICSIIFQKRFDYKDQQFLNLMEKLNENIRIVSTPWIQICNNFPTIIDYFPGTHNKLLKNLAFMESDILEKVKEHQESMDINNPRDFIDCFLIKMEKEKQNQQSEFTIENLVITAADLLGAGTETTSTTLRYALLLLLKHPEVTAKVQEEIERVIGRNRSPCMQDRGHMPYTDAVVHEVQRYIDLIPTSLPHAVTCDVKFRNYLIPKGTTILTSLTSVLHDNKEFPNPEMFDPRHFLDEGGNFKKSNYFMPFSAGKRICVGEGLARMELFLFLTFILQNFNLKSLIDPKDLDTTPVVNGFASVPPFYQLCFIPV

For Cc1cc(-c2noc(C(F)(F)F)n2)ccc1OCCCc1cc(C(=O)N(C)C)no1 [compound 11526092, 3-(3-methyl-4-(3-(3-N,N-dimethylcarbamoyl-isoxazol-5-yl)propoxy)phenyl)-5-trifluoromethyl-1,2,4-oxadiazole], the “Mouse plasma protein binding, stability” value [1] was 88.1%, the “Mouse plasma protein binding, bound” value ([1]; mouse) was 99.8% and the IC50 (CYP2C19) was 2.1 µM. The EC50 [2] was < 0.032 µM, the “Lung concentration of IFN-γ” value ([3]; 10 mg/kg, day 1) was “reductions” and the “Lung concentration of IL-10” value ([3]; 10 mg/kg, day 5) was “increase”. For the same compound, the Lung virus titer ([3]; 30 mg dose, day 5 p.i., P≤0.05 vs placebo) was “significant reduction”, the “Lung concentration of MIP-1α” value ([3]; 30 mg/kg, day 5) was “increase” and the “Lung concentration of MCP-1” value ([3]; 100 mg/kg, day 1) was “reductions”. The “Lung concentration of IL-1α” value ([3]; 100 mg/kg, day 3) was “increase”, the “Lung concentration of IL-1β” value ([3]; 100 mg/kg, day 3) was “increase” and the “Lung concentration of IL-4” value ([3]; 100 mg/kg, day 3) was “increase”. For the same compound, the “Lung concentration of IL-6” value ([3]; 100 mg/kg, day 3) was “increase”, the “Protection from weight loss (percentage of initial body weight)” value ([3]; 100 mg/kg/d PO, P<0.05, Fig. S16) was “significant protection from weight loss” and the Decrease of viremia ([3]; abstract) was 3 log. For the same compound, the “Lung concentration of RANTES” value ([3]; all doses, day 1, P≤0.01 - P≤0.0001) was “significantly reduced”, the “Lung concentration of GM-CSF” value ([3]; all doses, day 1, P≤0.01 - P≤0.001) was “significantly reduced” and the “Lung concentration of IL-3” value ([3]; all doses, day 1, P≤0.05) was “significantly reduced”. For the same compound, the “Lung concentration of IL-5” value ([3]; all doses, day 1, P≤0.05) was “significantly reduced”, the “Virus titers in the blood (viremia)” value ([3]; all doses, days 1 and 3 p.i., P≤0.0001) was “reduce viremia” and the Lung virus titers ([3]; day 3 p.i., this study) was “did not demonstrate any antiviral activity”. For the same compound, the “Reduction in lung titer” value ([3]; day 5, abstract) was 1 log, the “Antiviral effect in RD cells infected with EV-D68” value [4] was “greatest antiviral effect” and the IC50 (CYP2C9) was 5 µM. The EC50 (EV-D68) was 0.059 µM, the CC50 (MDCK) was 44.8 µM and the Human plasma stability (Human plasma stability) was 93.9% @ 5 hr, 37 °C. For the same compound, the EC90 [5] was 9.4 µM, the IC50 (hERG) was > 100 µM and the CC50 (RD; read-out: 50% Cytotoxic concentration CC50, line of EV-D68 US/KY/14-18953) was 2.4 µM. For the same compound, the CC50 (RD; read-out: 50% Cytotoxic concentration CC50, line of EV-D68 US/MO/14-18949) was 28 µM, the CC50 (RD; read-out: 50% Cytotoxic concentration CC50, line of Human Echovirus-11) was 18 µM and the CC50 (RD; read-out: 50% Cytotoxic concentration CC50, line of Human Echovirus-30) was 11 µM. The EC50 (EV-71 Tainan/4643/98) was 4.24 µM, the IC50 (CYP2D6) was > 50 µM and the “Relative fold gene expression in the pancreas (qPCR)” value (mouse-adapted CVB5; 100 mg/kg per day, Fig. 5B) was “statistically significant (P≤0.05) decrease”. The “Histology of pancreatic tissue” value (mouse-adapted CVB5; CVB5-infected mice, Fig. S20) was “no signs of tissue damage”, the EC50 [6] was < 0.032 µM and the EC90 [7] was < 0.032 µM. It also gave an EC90 (EV-D68 US/KY/14-18953) of 0.078 µM and an EC90 (Coxsackie B3 HA 201933) of 7.78 µM.
